Patent US20240124412A1, “IKAROS ZINC FINGER FAMILY DEGRADERS AND USES THEREOF” (Gilead Sciences, Inc., priority 2021, published 2024)
Read-outs that look alike come from different tables or passages of the source.

How the values were obtained:
[1] = target: T1, IKZF1 (Homo sapiens, UniProt Q13422+Q96SW2); assay: HiBiT protein tagging assay, in vitro IKZF1 degradation (HEK293); type: cell-based; conditions: for Dmax: read-out: IKZF1 Dmax (maximum degradation at the highest concentration tested)
T1 construct: expressed in transfected cells
T1 sequence (Q13422 whole entry): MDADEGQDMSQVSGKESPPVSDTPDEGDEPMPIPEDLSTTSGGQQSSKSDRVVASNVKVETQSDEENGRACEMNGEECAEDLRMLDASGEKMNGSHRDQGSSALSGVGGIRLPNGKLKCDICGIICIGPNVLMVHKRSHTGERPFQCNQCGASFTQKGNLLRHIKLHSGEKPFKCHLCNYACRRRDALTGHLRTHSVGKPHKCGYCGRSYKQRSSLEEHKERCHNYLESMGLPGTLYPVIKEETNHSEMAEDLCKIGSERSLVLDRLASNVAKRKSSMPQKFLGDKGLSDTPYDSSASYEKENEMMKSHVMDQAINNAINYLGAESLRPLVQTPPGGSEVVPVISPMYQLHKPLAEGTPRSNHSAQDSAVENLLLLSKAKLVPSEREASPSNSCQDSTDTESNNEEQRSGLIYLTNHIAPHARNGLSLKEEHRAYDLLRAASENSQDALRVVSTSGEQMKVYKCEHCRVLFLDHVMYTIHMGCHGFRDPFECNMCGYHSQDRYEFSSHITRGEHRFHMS
T1 sequence (Q96SW2 whole entry): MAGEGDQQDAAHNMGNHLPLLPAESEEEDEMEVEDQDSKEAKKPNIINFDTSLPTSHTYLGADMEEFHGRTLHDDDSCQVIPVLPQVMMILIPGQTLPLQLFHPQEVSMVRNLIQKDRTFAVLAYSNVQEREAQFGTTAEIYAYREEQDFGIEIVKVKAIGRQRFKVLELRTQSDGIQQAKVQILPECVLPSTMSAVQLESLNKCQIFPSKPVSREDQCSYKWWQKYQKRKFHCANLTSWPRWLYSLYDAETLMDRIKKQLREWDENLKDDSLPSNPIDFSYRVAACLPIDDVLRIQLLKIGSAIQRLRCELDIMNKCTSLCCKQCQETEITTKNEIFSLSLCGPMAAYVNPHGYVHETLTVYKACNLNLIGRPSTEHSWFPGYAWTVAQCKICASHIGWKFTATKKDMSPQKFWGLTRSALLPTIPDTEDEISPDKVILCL
T1 sequence (Q16531 whole entry partner): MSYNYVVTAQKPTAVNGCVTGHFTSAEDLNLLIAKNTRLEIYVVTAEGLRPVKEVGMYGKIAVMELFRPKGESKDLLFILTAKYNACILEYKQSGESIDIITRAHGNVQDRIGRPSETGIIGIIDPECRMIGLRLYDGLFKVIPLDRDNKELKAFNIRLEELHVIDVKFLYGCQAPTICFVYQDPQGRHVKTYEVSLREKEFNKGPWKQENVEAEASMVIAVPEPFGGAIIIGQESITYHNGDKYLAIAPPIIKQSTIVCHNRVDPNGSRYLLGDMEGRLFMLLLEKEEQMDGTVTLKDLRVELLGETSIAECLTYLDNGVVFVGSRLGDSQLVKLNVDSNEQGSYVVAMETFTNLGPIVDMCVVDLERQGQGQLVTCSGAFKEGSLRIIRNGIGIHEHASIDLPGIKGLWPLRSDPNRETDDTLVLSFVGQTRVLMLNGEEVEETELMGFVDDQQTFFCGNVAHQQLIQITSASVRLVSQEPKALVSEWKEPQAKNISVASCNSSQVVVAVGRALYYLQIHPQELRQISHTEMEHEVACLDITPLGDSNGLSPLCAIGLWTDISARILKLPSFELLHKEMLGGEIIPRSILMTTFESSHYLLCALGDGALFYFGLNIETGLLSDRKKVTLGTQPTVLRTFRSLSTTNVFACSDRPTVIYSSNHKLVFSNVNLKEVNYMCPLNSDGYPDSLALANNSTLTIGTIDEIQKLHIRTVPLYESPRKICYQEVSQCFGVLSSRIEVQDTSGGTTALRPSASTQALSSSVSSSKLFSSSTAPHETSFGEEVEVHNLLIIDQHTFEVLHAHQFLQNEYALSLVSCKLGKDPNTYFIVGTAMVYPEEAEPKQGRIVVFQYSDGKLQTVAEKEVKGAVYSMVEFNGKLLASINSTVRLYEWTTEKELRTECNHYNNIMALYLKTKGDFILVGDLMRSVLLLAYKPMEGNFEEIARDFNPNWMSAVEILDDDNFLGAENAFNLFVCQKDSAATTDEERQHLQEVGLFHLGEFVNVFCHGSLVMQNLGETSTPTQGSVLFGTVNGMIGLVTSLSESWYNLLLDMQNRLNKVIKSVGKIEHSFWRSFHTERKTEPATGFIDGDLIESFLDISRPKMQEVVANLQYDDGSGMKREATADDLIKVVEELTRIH
Summary of the method: (§1)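 Flp-In T-REx HEK293 pools stably expressing C-terminal HiBiT-tagged IKZF1 or IKZF2 were induced overnight with 1 μg/ml doxycycline. Cells were then treated with serially diluted compound for 18-24 hr at 37 °C and read by Nano-Glo lytic luminescence. Data were normalized to 0.5% DMSO as POC; EC50 and Dmax (maximum degradation at highest concentration tested) reported.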

[2] = target: T2, IKZF2 (Homo sapiens, UniProt Q96SW2+Q9UKS7); assay: HiBiT protein tagging assay, in vitro IKZF2 degradation (HEK293); type: cell-based
T2 construct: expressed in transfected cells
T2 sequence (Q9UKS7 1-500 isoform Q9UKS7-2): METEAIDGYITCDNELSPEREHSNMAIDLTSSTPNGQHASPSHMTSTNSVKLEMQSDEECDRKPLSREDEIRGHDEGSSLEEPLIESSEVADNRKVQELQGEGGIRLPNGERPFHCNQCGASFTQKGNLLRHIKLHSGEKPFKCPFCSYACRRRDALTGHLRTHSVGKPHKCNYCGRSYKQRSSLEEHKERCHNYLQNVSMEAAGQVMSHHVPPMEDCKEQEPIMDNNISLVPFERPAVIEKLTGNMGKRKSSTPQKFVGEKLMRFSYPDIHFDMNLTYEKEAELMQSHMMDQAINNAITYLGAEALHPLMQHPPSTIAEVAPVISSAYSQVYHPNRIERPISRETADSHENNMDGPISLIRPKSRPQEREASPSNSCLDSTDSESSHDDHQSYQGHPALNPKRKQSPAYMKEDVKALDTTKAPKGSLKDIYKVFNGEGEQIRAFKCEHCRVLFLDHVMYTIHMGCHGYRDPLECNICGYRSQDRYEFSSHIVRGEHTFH
T2 sequence (Q96SW2 whole entry): as the sequence (Q96SW2 whole entry) above
T2 sequence (Q16531 whole entry partner): as the sequence (Q16531 whole entry partner) above
Summary of the method: as §1

[3] = HEK293, 18-24 hr incubation, normalized to DMSO control
[4] = HEK293, 18-24 hr incubation, normalized to DMSO control, read-out: IKZF1 EC50
[5] = HEK293, HiBiT assay, HEK293, 18-24 hr incubation, normalized to DMSO control; read-out: IKZF2 Dmax (maximum degradation at the highest concentration tested)
[6] = HiBiT assay, HEK293, 18-24 hr incubation, normalized to DMSO control; read-out: IKZF2 EC50

With `CC[C@H]1CCCC[C@H]1NCc1ccc2c(c1)CN(C1CCC(=O)NC1=O)C2=O` (stereo partly drawn) [Example 148] as the molecule, how does the Dmax [1, 3] read?
Its Dmax is 38%.

What about the DC50 [1, 4] of the same molecule?
The DC50 was 119 nM.

What about the Dmax [2, 5] of the same molecule?
Its Dmax is 43%.

And the DC50 [2, 6]?
Its DC50 is 177 nM.

With `CC[C@@H]1CCCC[C@H]1NCc1ccc2c(c1)CN(C1CCC(=O)NC1=O)C2=O` (stereo partly drawn) [Example 149] as the molecule, how does the DC50 [1, 4] read?
Its DC50 is greater than 1000 nM.

And the Dmax [2, 5]?
The Dmax was 35%.

What about the DC50 [2, 6] of the same molecule?
Its DC50 is 115 nM.

Which results are given for `O=C1CCC(N2Cc3cc(CNC4(C5CC5)CCCCC4)ccc3C2=O)C(=O)N1` (stereo not drawn) [Example 150, 3-(5-(((1-cyclopropylcyclohexyl)amino)methyl)-1-oxoisoindolin-2-yl)piperidine-2,6-dione]?
DC50 [1, 4]: > 10000 nM; Dmax [2, 5]: 47%; DC50 [2, 6]: 445 nM

`CC1(NCc2ccc3c(c2)CN(C2CCC(=O)NC2=O)C3=O)CCCC1` (stereo not drawn) [Example 151, 3-(5-(((1-methylcyclopentyl)amino)methyl)-1-oxoisoindolin-2-yl)piperidine-2,6-dione] was tested. Which Dmax [1, 3] did it give?
The Dmax was 26%.

And the DC50 [1, 4]?
Its DC50 is 172 nM.

What about the Dmax [2, 5] of the same molecule?
The Dmax was 81%.

And the DC50 [2, 6]?
The DC50 was 151 nM.

What does the source list for `O=C1CCC(N2Cc3cc(CNC4(CCc5ccccc5)CCCCC4)ccc3C2=O)C(=O)N1` (stereo not drawn) [Example 152, 3-(1-oxo-5-(((1-phenethylcyclohexyl)amino)methyl)isoindolin-2-yl)piperidine-2,6-dione]?
DC50 [1, 4]: > 1000 nM; Dmax [2, 5]: 65%; DC50 [2, 6]: 172 nM

For `O=C1CCC(N2Cc3cc(CNC4(c5ccc(F)cc5)CCCCC4)ccc3C2=O)C(=O)N1` (stereo not drawn) [Example 153, 3-(5-(((1-(4-fluorophenyl)cyclohexyl)amino)methyl)-1-oxoisoindolin-2-yl)piperidine-2,6-dione], which DC50 ([1]; read-out: IKZF1 EC50, HEK293, 18-24 hr incubation, normalized to DMSO control) is on record?
The DC50 was greater than 1000 nM.

What about the Dmax [2, 5] of the same molecule?
Its Dmax is 36%.

What about the DC50 ([2]; read-out: IKZF2 EC50; HiBiT assay, HEK293, 18-24 hr incubation, normalized to DMSO control) of the same molecule?
The DC50 was 122 nM.

Which results are given for `COCC1(NCc2ccc3c(c2)CN(C2CCC(=O)NC2=O)C3=O)CCCCC1` (stereo not drawn) [Example 154, 3-(5-(((1-(methoxymethyl)cyclohexyl)amino)methyl)-1-oxoisoindolin-2-yl)piperidine-2,6-dione]?
DC50 [1, 4]: > 1000 nM; Dmax [2, 5]: 47%; DC50 [2, 6]: 293 nM

Which Dmax [1, 3] does the source give for `C[C@]1(NCc2ccc3c(c2)CN(C2CCC(=O)NC2=O)C3=O)CCCN(Cc2ccccc2)C1` (stereo partly drawn) [Example 155, 3-(5-((((S)-1-benzyl-3-methylpiperidin-3-yl)amino)methyl)-1-oxoisoindolin-2-yl)piperidine-2,6-dione] here?
The Dmax was 61%.

And the DC50 [1, 4]?
The DC50 was 122 nM.

What about the Dmax [2, 5] of the same molecule?
Its Dmax is 87%.

What about the DC50 [2, 6] of the same molecule?
The DC50 was 106 nM.

`C[C@@]1(NCc2ccc3c(c2)CN(C2CCC(=O)NC2=O)C3=O)CCCN(Cc2ccccc2)C1` (stereo partly drawn) [Example 156, 3-(5-((((R)-1-benzyl-3-methylpiperidin-3-yl)amino)methyl)-1-oxoisoindolin-2-yl)piperidine-2,6-dione] was tested. Which Dmax [1, 3] did it give?
Its Dmax is 92%.

What about the DC50 [1, 4] of the same molecule?
The DC50 was 58 nM.

What about the Dmax [2, 5] of the same molecule?
The Dmax was 96%.

What about the DC50 [2, 6] of the same molecule?
Its DC50 is 35 nM.

`O=C1CCC(N2Cc3cc(CN[C@H]4CCC[C@@H]4NCc4ccccc4)ccc3C2=O)C(=O)N1` (stereo partly drawn) [Example 157, 3-(5-((((1S,2S)-2-(benzylamino)cyclopentyl)amino)methyl)-1-oxoisoindolin-2-yl)piperidine-2,6-dione] was tested. Which Dmax [1, 3] did it give?
The Dmax was 66%.

And the DC50 [1, 4]?
Its DC50 is 131 nM.

And the Dmax [2, 5]?
The Dmax was 43%.

And the DC50 [2, 6]?
The DC50 was 443 nM.

For `COC[C@@H]1CCCC[C@@H]1NCc1ccc2c(c1)CN(C1CCC(=O)NC1=O)C2=O` (stereo partly drawn) [Example 158, 3-(5-((((1S,2R)-2-(methoxymethyl)cyclohexyl)amino)methyl)-1-oxoisoindolin-2-yl)piperidine-2,6-dione], which Dmax [1, 3] is on record?
The Dmax was 85%.

And the DC50 [1, 4]?
Its DC50 is 90 nM.

And the Dmax [2, 5]?
Its Dmax is 93%.

And the DC50 [2, 6]?
The DC50 was 46 nM.
